Data on 18 compounds can be found in patent publication US20100317850A1 (priority 2008, published 2010).

SMILES strings stand for the structures.

The assay has as its system Aβ42 production. As to the kind of experiment: Quantification of Aβ peptide in culture of neurons from rat fetus brain (Aβ ELISA). To be noted: Neuron, 72 h; rat primary neuronal culture (cerebral cortex, embryonic day 18 Wistar rats); medium collected three days after addition of the compound; Aβx-42 ELISA; read-out: Aβ42 production reducing effect IC50. Type of assay: cell-based. On the procedure:
Quantification of Aβ Peptide in Culture of Neurons from Rat Fetus Brain
(1) Rat Primary Neuronal Culture
Primary neuronal cultures were prepared from the cerebral cortex of embryonic day 18 Wistar rats (Charles River Japan, Yokohama, Japan). Specifically, the embryos were aseptically removed from pregnant rats under ether anesthesia. The brain was isolated from the embryo and immersed in an ice-cold L-15 medium (such as Invitrogen Corp. Cat #11415-064, Carlsbad, Calif., USA, or SIGMA L1518). The cerebral cortex was collected from the isolated brain under a stereoscopic microscope. The cerebral cortex fragments collected were enzymatically treated in an enzyme solution containing 0.25% trypsin (Invitrogen Corp. Cat #15050-065, Carlsbad, Calif., USA) and 0.01% DNase (Sigma D5025, St. Louis, Mo., USA) at 37° C. for 30 minutes to disperse the cells. Here, the enzymatic reaction was stopped by adding inactivated horse serum to the solution. The enzymatically treated solution was centrifuged at 1,500 rpm for five minutes to remove the supernatant. 5 to 10 mL of a medium was added to the resulting cell mass. Neurobasal medium (Invitrogen Corp. Cat #21103-049, Carlsbad, Calif., USA) supplemented with 2% B27 supplement (Invitrogen Corp. Cat #17504-044, Carlsbad, Calif., USA), 25 μM 2-mercaptoethanol (2-ME, WAKO Cat #139-06861, Osaka, Japan), 0.5 mM L-glutamine (Invitrogen Corp. Cat #25030-081, Carlsbad, Calif., USA), and Antibiotics-Antimycotics (Invitrogen Corp. Cat #15240-062, Carlsbad, Calif., USA) was used as the medium (Neurobasal/B27/2-ME). However, the above Neurobasal medium not supplemented with 2-ME (Neurobasal/B27) was used for the assay. The cells were redispersed by mild pipetting of the cell mass to which the medium was added. The cell dispersion was filtered through a 40-μm nylon mesh (Cell Strainer, Cat #35-2340, Becton Dickinson Labware, Franklin Lakes, N.J., USA) to remove the remaining cell mass, and thus a neuronal cell suspension was obtained. The neuronal cell suspension was diluted with the medium and then plated in a volume of 100 μL/well at an initial cell density of 5×10^5 cells/cm^2 in a 96-well polystyrene culture plate pre-coated with poly-L or D-lysine (Falcon Cat #35-3075, Becton Dickinson Labware, Franklin Lakes, N.J., USA coated with poly-L-lysine using the method shown below, or BIOCOAT™ cell environments Poly-D-lysine cell ware 96-well plate, Cat #35-6461, Becton Dickinson Labware, Franklin Lakes, N.J., USA). Poly-L-lysine coating was carried out as follows. 100 μg/mL of a poly-L-lysine (SIGMA P2636, St. Louis, Mo., USA) solution was aseptically prepared with a 0.15 M borate buffer (pH 8.5). […] of the solution was added to the 96-well polystyrene culture plate and incubated at room temperature for one or more hours or at 4° C. overnight or longer. Thereafter, the coated 96-well polystyrene culture plate was washed with sterile water four or more times, and then dried or rinsed with, for example, sterile PBS or medium, and used for cell plating. The plated cells were cultured in the culture plate at 37° C. in 5% CO2-95% air for one day. Then, the total amount of the medium was replaced with a fresh Neurobasal™/B27/2-ME medium, and then the cells were cultured for further three days.
The drug was added to the culture plate on Day 4 of culture as follows. The total amount of the medium was removed from the wells, and 180 μL/well of Neurobasal medium not containing 2-ME and containing 2% B-27 (Neurobasal/B27) was added thereto. A solution of the test compound in dimethyl sulfoxide (hereinafter abbreviated as DMSO) was diluted with Neurobasal/B27 to a concentration 10-fold higher than the final concentration. 20 μL/well of the dilution was added to and sufficiently mixed with the medium. The final DMSO concentration was 1% or less. Only DMSO was added to the control group.
The cells were cultured for three days after addition of the compound, and the total amount of the medium was collected. […]
In general terms: An ELISA detects its analyte on a solid surface through an enzyme-linked reagent.
Broadly, the IC50 is the concentration needed to halve the response being measured. As to `NC1=N[C@@]2(c3cc(NC(=O)c4cnc(C(F)F)cn4)ccc3F)CCOC[C@H]2CS1` (relative stereo) [Example 79, N-[3-((4aS*,8aS*)-2-amino-4a,5,7,8-tetrahydro-4H-6-oxa-3-thia-1-azanaphthalen-8a-yl)-4-fluorophenyl]-5-difluoromethylpyrazine-2-carboxamide], the 50% inhibitory concentration (IC50) is 28 nM.

On to `NC1=N[C@@]2(c3cc(NC(=O)c4cnc(OCF)cn4)ccc3F)CCOC[C@H]2CS1` (relative stereo) [Example 80, N-[3-((4aS*,8aS*)-2-amino-4a,5,7,8-tetrahydro-4H-6-oxa-3-thia-1-azanaphthalen-8a-yl)-4-fluorophenyl]-5-fluoromethoxypyrazine-2-carboxamide], for which the IC50 is 8 nM.

With `NC1=N[C@@]2(c3cc(NC(=O)c4ccc(OC(F)F)cn4)ccc3F)CCOC[C@H]2CS1` (relative stereo) [Example 81, N-[3-((4aS*,8aS*)-2-amino-4a,5,7,8-tetrahydro-4H-6-oxa-3-thia-1-azanaphthalen-8a-yl)-4-fluorophenyl]-5-difluoromethoxypyridine-2-carboxamide], the concentration for half-maximal inhibition (IC50) came out at 14 nM.

`CCO[C@H]1C[C@H]2CSC(N)=N[C@@]2(c2cc(NC(=O)c3ccc(C#N)cn3)ccc2F)C1` (relative stereo) [Example 89, (+)-N-[3-((4aR*,6S*,7aS*)-2-amino-6-ethoxy-4a,5,6,7-tetrahydro-4H-cyclopenta[d][1,3]thiazin-7a-yl)-4-fluorophenyl]-5-cyanopyridine-2-carboxamide]: the 50% inhibitory concentration (IC50) was 3.2 nM.

Consider `CCO[C@@H]1C[C@H]2CSC(N)=N[C@@]2(c2cc(NC(=O)c3ccc(C#N)cn3)ccc2F)C1` (relative stereo) [Example 90, (+)-N-[3-((4aR*,6R*,7aS*)-2-amino-6-ethoxy-4a,5,6,7-tetrahydro-4H-cyclopenta[d][1,3]thiazin-7a-yl)-4-fluorophenyl]-5-cyanopyridine-2-carboxamide], for which the IC50 worked out at 2.5 nM.

As for `N#Cc1ccc(C(=O)Nc2ccc(F)c([C@]34C[C@H](F)C[C@H]3CSC(N)=N4)c2)nc1` (relative stereo) [Example 91, (+)-N-[3-((4aR*,6R*,7aS*)-2-amino-6-fluoro-4a,5,6,7-tetrahydro-4H-cyclopenta[d][1,3]thiazin-7a-yl)-4-fluorophenyl]-5-cyanopyridine-2-carboxamide], the IC50 turned out to be 1.4 nM.

For the compound `CO[C@H]1C[C@H]2CSC(N)=N[C@@]2(c2cc(NC(=O)c3cnc(C(F)F)cn3)ccc2F)C1` (relative stereo) [Example 92, (+)-N-[3-((4aR*,6S*,7aS*)-2-amino-6-methoxy-4a,5,6,7-tetrahydro-4H-cyclopenta[d][1,3]thiazin-7a-yl)-4-fluorophenyl]-5-difluoromethylpyrazine-2-carboxamide], the IC50 was determined as 5 nM.

As to `CO[C@@H]1C[C@H]2CSC(N)=N[C@@]2(c2cc(NC(=O)c3cnc(C(F)F)cn3)ccc2F)C1` (relative stereo) [Example 93, (+)-N-[3-((4aR*,6R*,7aS*)-2-amino-6-methoxy-4a,5,6,7-tetrahydro-4H-cyclopenta[d][1,3]thiazin-7a-yl)-4-fluorophenyl]-5-difluoromethylpyrazine-2-carboxamide], the IC50 is 3 nM.

As for `N#Cc1ccc(C(=O)Nc2ccc(F)c([C@]34CC(F)(F)C[C@H]3CSC(N)=N4)c2)nc1` (relative stereo) [Example 94, (+)-N-[3-((4aR*,7aS*)-2-amino-6,6-difluoro-4a,5,6,7-tetrahydro-4H-cyclopenta[d][1,3]thiazin-7a-yl)-4-fluorophenyl]-5-cyanopyridine-2-carboxamide], the 50% inhibitory concentration (IC50) was determined as 2 nM.

With `CO[C@@H]1C[C@H]2CSC(N)=N[C@@]2(c2cc(NC(=O)c3cnc(OC(F)F)cn3)ccc2F)C1` (relative stereo) [Example 95], the IC50 was determined as 1 nM.

On to `CO[C@@H]1C[C@H]2CSC(N)=N[C@@]2(c2cc(NC(=O)c3cnc(OCF)cn3)ccc2F)C1` (relative stereo) [Example 96, (+)-N-[3-((4aR*,6R*,7aS*)-2-amino-6-methoxy-4a,5,6,7-tetrahydro-4H-cyclopenta[d][1,3]thiazin-7a-yl)-4-fluorophenyl]-5-fluoromethoxypyrazine-2-carboxamide], for which the half-maximal inhibitory concentration (IC50) turned out to be 1 nM.

Turning to `NC1=N[C@@]2(c3cc(NC(=O)c4cnc(OC(F)F)cn4)ccc3F)C[C@H](F)C[C@H]2CS1` (relative stereo) [Example 98, (+)-N-[3-((4aR*,6R*,7aS*)-2-amino-6-fluoro-4a,5,6,7-tetrahydro-4H-cyclopenta[d][1,3]thiazin-7a-yl)-4-fluorophenyl]-5-difluoromethoxypyrazine-2-carboxamide], the IC50 turned out to be 1 nM.

With `CO[C@@H]1C[C@H]2CSC(N)=N[C@@]2(c2cc(NC(=O)c3ccc(Cl)cn3)ccc2F)C1` (relative stereo) [Example 99, (+)-N-[3-((4aR*,6R*,7aS*)-2-amino-6-methoxy-4a,5,6,7-tetrahydro-4H-cyclopenta[d][1,3]thiazin-7a-yl)-4-fluorophenyl]-5-chloropyridine-2-carboxamide], the IC50 turned out to be 1 nM.

For the compound `CO[C@@H]1C[C@H]2CSC(N)=N[C@@]2(c2cc(NC(=O)c3ccc(OC(F)F)cn3)ccc2F)C1` (relative stereo) [Example 100, (+)-N-[3-((4aR*,6R*,7aS*)-2-amino-6-methoxy-4a,5,6,7-tetrahydro-4H-cyclopenta[d][1,3]thiazin-7a-yl)-4-fluorophenyl]-5-difluoromethoxypyridine-2-carb oxamide], the half-maximal inhibitory concentration (IC50) was 2 nM.

Regarding `CCCCO[C@@H]1C[C@H]2CSC(N)=N[C@@]2(c2cc(NC(=O)c3ccc(C#N)cn3)ccc2F)C1` (relative stereo) [Example 108, (+)-N-[3-((4aR*,6R*,7aS*)-2-amino-6-butoxy-4a,5,6,7-tetrahydro-4H-cyclopenta[d][1,3]thiazin-7a-yl)-4-fluorophenyl]-5-cyanopyridine-2-carboxamide], the IC50 was determined as 1 nM.

On to `CCCCO[C@H]1C[C@H]2CSC(N)=N[C@@]2(c2cc(NC(=O)c3ccc(C#N)cn3)ccc2F)C1` (relative stereo) [Example 109, (+)-N-[3-((4aR*,6S*,7aS*)-2-amino-6-butoxy-4a,5,6,7-tetrahydro-4H-cyclopenta[d][1,3]thiazin-7a-yl)-4-fluorophenyl]-5-cyanopyridine-2-carboxamide], for which the IC50 turned out to be 1.8 nM.

Take `N#Cc1ccc(C(=O)Nc2ccc(F)c([C@]34C[C@@H](F)C[C@H]3CSC(N)=N4)c2)nc1` (relative stereo) [Example 110, (+)-N-[3-((4aR*,6S*,7aS*)-2-amino-6-fluoro-4a,5,6,7-tetrahydro-4H-cyclopenta[d][1,3]thiazin-7a-yl)-4-fluorophenyl]-5-cyanopyridine-2-carboxamide]: the IC50 amounted to 5 nM.

Regarding `N#Cc1ccc(C(=O)Nc2ccc(F)c([C@]34CCO[C@H](CF)[C@H]3CSC(N)=N4)c2)nc1` (relative stereo) [Example 143, N-[3-((4aS*,5S*,8aS*)-2-amino-5-fluoromethyl-4a,5,7,8-tetrahydro-4H-6-oxa-3-thia-1-azanaphthalen-8a-yl)-4-fluorophenyl]-5-cyanopyridine-2-carboxamide], the half-maximal inhibitory concentration (IC50) came to 16 nM.
